13 molecules from ChEMBL document CHEMBL1201862, “PubChem BioAssay data set” (2004) can be followed below.

Among the test systems are NCI/ADR-RES; SF-295; U-251; HCT-116; PC-3; A549; UO-31; MDA-MB-435; DU-145; M14; OVCAR-5; OVCAR-8; MCF7; 786-0; MOLT-4; HOP-92; IGROV-1; SF-268; RPMI-8226.
Assay in all cases: growth of human tumour cells (NCI), 48 h

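96-well plates; 48 h exposure; 5 concentrations. Endpoints by linear interpolation between flanking doses. Not reached: highest tested concentration assigned. The concentration for 50% growth inhibition is given as GI50.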 Active and inactive are the calls of the source. Rule as the data show it: active = GI50 up to about 1.1 µM and inactive = higher.

For `CC1(C)SC2C(NC(=O)Cc3ccccc3)C(=O)N2C1C(=O)O` (stereo not given), the GI50 in the experiment on NCI/ADR-RES, in the experiment with SF-295, in the experiment on U-251, in the experiment with HCT-116, in the experiment with PC-3 and in the experiment on A549 was > 100 µM (inactive) in each case. Further, the GI50 in the experiment with UO-31, in the experiment with MDA-MB-435, with DU-145, in the experiment on M14, in the experiment with OVCAR-5 and in the experiment with OVCAR-8 was > 100 µM (inactive) each time. For the same molecule, the GI50 with MCF7, in the experiment on 786-0, in the experiment on MOLT-4, in the experiment on HOP-92, in the experiment with IGROV-1 and in the experiment on SF-268 was > 100 µM (inactive) in each case.
In the case of `Nc1ccn(CCNCCn2cnc3nc(N)[nH]c(=O)c32)c(=O)n1`, the GI50 in the experiment on SF-295, with U-251, in the experiment on HCT-116, with RPMI-8226, with A549 and in the experiment on UO-31 was > 100 µM (inactive) throughout. For the same molecule, the GI50 in the experiment with OVCAR-5, in the experiment on OVCAR-8, in the experiment with 786-0, in the experiment on HOP-92, in the experiment on IGROV-1 and with SF-268 was > 100 µM (inactive) in each case.
With `[N-]=[N+]=Nc1ccc2c(c1)Sc1ccccc1N2CCCCN1CCN(Cc2ccc(C(=O)c3ccc(CSCC(N)C(=O)O)cc3)cc2)CC1` (stereo not given), the GI50 in the experiment on SF-295 is 18.2 µM (inactive); with U-251, 11.1 µM (inactive); in the experiment with HCT-116, 15.2 µM (inactive); with RPMI-8226, 13.2 µM (inactive); with PC-3, 43.5 µM (inactive); in the experiment with UO-31 it was 37.4 µM (inactive). Also, the GI50 in the experiment with MDA-MB-435 is 1.59 µM (inactive); with DU-145, 21.3 µM (inactive); in the experiment on OVCAR-5 it was 52.4 µM (inactive); with MCF7 it was 16.4 µM (inactive); with 786-0, 12.1 µM (inactive); with MOLT-4 it was 15.3 µM (inactive). The values for the GI50 with HOP-92, in the experiment on IGROV-1 and with SF-268 were 9.84 µM (inactive), 13.5 µM (inactive) and 27.5 µM (inactive), respectively.
Turning to `Cc1cc2nn(C3CCCCO3)nc2cc1C` (stereo not given), the GI50 with NCI/ADR-RES, in the experiment on SF-295, with U-251, in the experiment with HCT-116, in the experiment on PC-3 and in the experiment on A549 was > 100 µM (inactive) each time. The GI50 in the experiment with UO-31 was 75.7 µM (inactive); in the experiment on MDA-MB-435 it was > 100 µM (inactive); with DU-145 it was > 100 µM (inactive); in the experiment on M14 it was > 100 µM (inactive); with OVCAR-5 it was > 100 µM (inactive); with OVCAR-8 it was > 100 µM (inactive). Further, the GI50 in the experiment on MCF7, with 786-0, with MOLT-4, in the experiment with IGROV-1 and in the experiment on SF-268 was > 100 µM (inactive) in each case.
For `O=C1NI(C#Cc2ccccc2)c2ccccc21`, the GI50 in the experiment with NCI/ADR-RES was > 100 µM (inactive); in the experiment on SF-295 it was > 100 µM (inactive); with U-251 it was 60.3 µM (inactive); in the experiment on HCT-116, > 100 µM (inactive); in the experiment with RPMI-8226, 43.7 µM (inactive); with PC-3, 19 µM (inactive). In addition, the GI50 in the experiment with A549 is 59 µM (inactive); with UO-31, > 100 µM (inactive); with MDA-MB-435 it was > 100 µM (inactive); in the experiment on DU-145 it was > 100 µM (inactive); in the experiment with M14, > 100 µM (inactive); with OVCAR-8, > 100 µM (inactive). The GI50 was 22.2 µM (inactive) in the experiment on MCF7; > 100 µM (inactive) in the experiment with 786-0; 65.3 µM (inactive) with MOLT-4; > 100 µM (inactive) in the experiment on IGROV-1; > 100 µM (inactive) in the experiment on SF-268.
As to `C[C@]12CC[C@H]3[C@@H](CCC4=C/C(=N/OCCN5CCCCC5)CC[C@@]43C)[C@@H]1CC[C@@H]2O`, the GI50 is 16.7 µM (inactive) in the experiment with NCI/ADR-RES; 13.8 µM (inactive) in the experiment with SF-295; 13.3 µM (inactive) in the experiment with U-251; 19.3 µM (inactive) in the experiment with HCT-116; 10.7 µM (inactive) in the experiment on RPMI-8226; 16.2 µM (inactive) with PC-3. Besides, the GI50 is 14.4 µM (inactive) with A549; 12.2 µM (inactive) in the experiment with UO-31; 7.66 µM (inactive) in the experiment on MDA-MB-435; 21.9 µM (inactive) in the experiment with DU-145; 8.02 µM (inactive) in the experiment on M14; 16.1 µM (inactive) in the experiment with OVCAR-5. The GI50 in the experiment on OVCAR-8 is 24.1 µM (inactive); in the experiment with MCF7, 12 µM (inactive); in the experiment with 786-0, 19.3 µM (inactive); in the experiment on MOLT-4, 5.81 µM (inactive); with IGROV-1, 27.4 µM (inactive).
In the case of `Cc1c(Cl)ccc2c1NC(=O)C2(O)CC(=O)c1ccc2ccccc2c1` (stereo not given), the GI50 with SF-295 was 88.3 µM (inactive); with U-251, 71.6 µM (inactive); in the experiment with HCT-116, 48.5 µM (inactive); in the experiment on RPMI-8226, 19.1 µM (inactive); with A549, 53.3 µM (inactive); in the experiment on UO-31 it was 22.4 µM (inactive). In addition, the GI50 is 86.1 µM (inactive) in the experiment on M14; > 100 µM (inactive) in the experiment with OVCAR-5; 55.2 µM (inactive) in the experiment with OVCAR-8; 29 µM (inactive) with 786-0; 18.6 µM (inactive) with MOLT-4; 44 µM (inactive) with HOP-92. Also, the GI50 in the experiment on IGROV-1 was 37.5 µM (inactive); in the experiment with SF-268, 32.1 µM (inactive).
Regarding `c1ccc2c(c1)N[C@@H]1c3[nH]c4ccccc4c3CC[C@H]21`, the GI50 was 13.6 µM (inactive) with NCI/ADR-RES; 13.4 µM (inactive) in the experiment on SF-295; 14.2 µM (inactive) in the experiment with U-251; 14.7 µM (inactive) in the experiment on HCT-116; 14.7 µM (inactive) with RPMI-8226; 11.9 µM (inactive) in the experiment on PC-3. Further, the GI50 with A549 was 18.3 µM (inactive); with UO-31, 17.7 µM (inactive); with MDA-MB-435 it was 17.3 µM (inactive); in the experiment with DU-145, 16.9 µM (inactive); in the experiment on M14, 13.5 µM (inactive); with OVCAR-5, 13.2 µM (inactive). Also, the GI50 was 12.9 µM (inactive) in the experiment with OVCAR-8; 15.1 µM (inactive) with 786-0; 13.9 µM (inactive) with MOLT-4; 14.4 µM (inactive) with HOP-92; 3.95 µM (inactive) with IGROV-1; 22.4 µM (inactive) in the experiment on SF-268.
With `Cc1nn(C(=O)Cc2ccccc2)c2c1C(c1ccccc1O)SC(=N)N2` (stereo not given), the GI50 in the experiment with SF-295, with HCT-116, in the experiment on RPMI-8226, in the experiment with PC-3, in the experiment on A549 and with UO-31 was > 100 µM (inactive) each time. Besides, the GI50 with MDA-MB-435, in the experiment on DU-145, with M14, in the experiment on OVCAR-8, in the experiment with MCF7 and with 786-0 was > 100 µM (inactive) each time. Moreover, the GI50 with MOLT-4, with IGROV-1 and in the experiment on SF-268 was > 100 µM (inactive) in each case.
On to `O=[N+]([O-])c1ccc(Cl)cc1N/N=C/c1cccs1`, for which the GI50 in the experiment on NCI/ADR-RES, in the experiment with SF-295, in the experiment on U-251, in the experiment with HCT-116, in the experiment with RPMI-8226 and in the experiment with PC-3 was > 100 µM (inactive) in each case. The GI50 in the experiment with A549, with UO-31, in the experiment with MDA-MB-435, with DU-145, in the experiment on M14 and in the experiment with OVCAR-8 was > 100 µM (inactive) in each case. Besides, the GI50 is 9.95 µM (inactive) with MCF7; > 100 µM (inactive) with 786-0; > 100 µM (inactive) in the experiment with MOLT-4; > 100 µM (inactive) with IGROV-1; > 100 µM (inactive) in the experiment on SF-268.
`C[C@@H](c1ccccc1)n1c(N)c(-c2ccccn2)c2ccc([N+](=O)[O-])cc2c1=O`: the GI50 was 26.9 µM (inactive) in the experiment with NCI/ADR-RES; 47.5 µM (inactive) in the experiment on U-251; 79.4 µM (inactive) with HCT-116; 17.5 µM (inactive) in the experiment on PC-3; 34.9 µM (inactive) with A549; 14.5 µM (inactive) in the experiment with UO-31. In addition, the GI50 is 92.7 µM (inactive) in the experiment on MDA-MB-435; 31.8 µM (inactive) with DU-145; 51.2 µM (inactive) in the experiment with OVCAR-8; > 100 µM (inactive) with 786-0; 33.3 µM (inactive) in the experiment with HOP-92; > 100 µM (inactive) in the experiment on SF-268.
Regarding `SC1=NNC2(C(Cl)=N1)c1ccccc1-c1ccccc12`, the GI50 in the experiment with NCI/ADR-RES was > 10 µM (inactive); in the experiment on U-251, > 10 µM (inactive); in the experiment with RPMI-8226, > 10 µM (inactive); in the experiment with A549, > 10 µM (inactive); with UO-31, 6.44 µM (inactive); in the experiment on DU-145, > 10 µM (inactive). The GI50 with M14, in the experiment on OVCAR-8, in the experiment with MCF7, in the experiment with 786-0, with MOLT-4 and with HOP-92 was > 10 µM (inactive) in each case. Also, the GI50 with IGROV-1 and with SF-268 was > 10 µM (inactive) each time.
Turning to `COc1ccc2[nH]c3c([N+](=O)[O-])ccc(NCCN(C)C)c3/c(=N/CCN(C)C)c2c1`, the GI50 was 1.58 µM (inactive) with SF-295; 0.421 µM (active) with RPMI-8226; 0.676 µM (active) with PC-3; 1.66 µM (inactive) with A549; 1.63 µM (inactive) with MDA-MB-435; 2.88 µM (inactive) in the experiment on DU-145. Besides, the GI50 in the experiment with M14 was > 10 µM (inactive); in the experiment on OVCAR-8, 0.634 µM (active); in the experiment on MCF7 it was 0.453 µM (active); in the experiment on 786-0, 0.577 µM (active); in the experiment with MOLT-4 it was 0.172 µM (active); with HOP-92, 5.08 µM (inactive). The GI50 was 1.91 µM (inactive) in the experiment on IGROV-1 and 0.962 µM (active) in the experiment with SF-268.
